Assay results taken from patent publication US8952024B2, “Herbicidal pyrimidone derivatives” (E I du Pont de Nemours and Company, priority 2009, dated 2015).

Experiments:
Assay in all cases: Test B pre-/postemergence plant response
Type in all cases: in vivo
[1] = tested on: yellow nutsedge (Cyperus esculentus)
Outline: (§1)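 Each species received compound formulated in non-phytotoxic solvent with surfactant, either at planting into a loam and sand blend or as a foliar spray once plants reached 2 to 18 cm in peat-based medium. Plants stayed in the greenhouse 13 to 15 days before visual evaluation against controls, scored 0 (no effect) to 100 (complete control).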

[2] = tested on: green foxtail (Setaria viridis)
Outline: as §1

[3] = tested on: downy bromegrass (Bromus tectorum)
Outline: as §1

[4] = tested on: corn (Zea mays)
Outline: as §1

[5] = tested on: johnsongrass (Sorghum halepense)
Outline: as §1

[6] = tested on: giant foxtail (Setaria faberii)
Outline: as §1

[7] = tested on: blackgrass (Alopecurus myosuroides)
Outline: as §1

[8] = tested on: soybean (Glycine max)
Outline: as §1

[9] = tested on: Surinam grass (Brachiaria decumbens)
Outline: as §1

[10] = tested on: wild oat (Avena fatua)
Outline: as §1

[11] = tested on: large crabgrass (Digitaria sanguinalis)
Outline: as §1

[12] = tested on: velvetleaf (Abutilon theophrasti)
Outline: as §1

[13] = tested on: goosegrass (Eleusine indica)
Outline: as §1

[14] = tested on: cocklebur (Xanthium strumarium)
Outline: as §1

[15] = tested on: woolly cupgrass (Eriochloa villosa)
Outline: as §1

[16] = tested on: kochia (Kochia scoparia); settings: Preemergence
Outline: as §1

[17] = tested on: morningglory (Ipomoea coccinea)
Outline: as §1

[18] = 250 g ai/ha, Preemergence, 0 to 100 scale
[19] = Postemergence, 62 g ai/ha, scale 0 (no effect) to 100 (complete control), 13 to 15 days
[20] = Postemergence, 125 g ai/ha, visual rating after 13 to 15 days, scale 0 (no effect) to 100 (complete control)
[21] = Postemergence, 250 g ai/ha, scale 0 to 100
[22] = Preemergence, 31 g ai/ha, scale 0 to 100 (0 no effect, 100 complete control)
[23] = Preemergence, 62 g ai/ha, scale 0 to 100, 0 no effect, 100 complete control
[24] = Preemergence, 125 g ai/ha, 0 to 100 scale
[25] = Postemergence, 31 g ai/ha, scale 0 to 100 (0 no effect, 100 complete control)

Cc1ccc(C)c(-n2c(-c3ccccc3)ncc(C(=O)C3=C(O)CCCC3=O)c2=O)c1 [Compound 29]
Plant response rating, Nutsedge, Yellow [1, 18]: 85
Plant response rating, Nutsedge, Yellow [1, 19]: 50
Plant response rating, Nutsedge, Yellow [1, 20]: 70
Nutsedge, Yellow plant response rating [1, 21]: 70
Plant response rating, Nutsedge, Yellow [1, 22]: 0
Plant response rating, Nutsedge, Yellow [1, 23]: 30
Nutsedge, Yellow plant response rating [1, 24]: 60
Plant response rating, Foxtail, Green [2, 18]: 100
Plant response rating, Foxtail, Green [2, 25]: 60
Plant response rating, Foxtail, Green [2, 19]: 75
Plant response rating, Foxtail, Green [2, 20]: 75
Foxtail, Green plant response rating [2, 21]: 90
Plant response rating, Foxtail, Green [2, 22]: 0
Plant response rating, Foxtail, Green [2, 23]: 40
Foxtail, Green plant response rating [2, 24]: 100
Plant response rating, Bromegrass, Downy [3, 18]: 5
Plant response rating, Bromegrass, Downy [3, 25]: 5
Plant response rating, Bromegrass, Downy [3, 19]: 10
Plant response rating, Bromegrass, Downy [3, 20]: 40
Bromegrass, Downy plant response rating [3, 21]: 45
Plant response rating, Bromegrass, Downy [3, 22]: 0
Plant response rating, Bromegrass, Downy [3, 23]: 0
Bromegrass, Downy plant response rating [3, 24]: 0
Plant response rating, Corn [4, 18]: 0
Plant response rating, Corn [4, 25]: 20
Plant response rating, Corn [4, 19]: 35
Plant response rating, Corn [4, 20]: 50
Corn plant response rating [4, 21]: 60
Plant response rating, Corn [4, 22]: 0
Plant response rating, Corn [4, 23]: 0
Corn plant response rating [4, 24]: 0
Plant response rating, Johnsongrass [5, 18]: 90
Plant response rating, Johnsongrass [5, 19]: 20
Plant response rating, Johnsongrass [5, 20]: 40
Johnsongrass plant response rating [5, 21]: 45
Plant response rating, Johnsongrass [5, 22]: 0
Plant response rating, Johnsongrass [5, 23]: 5
Johnsongrass plant response rating [5, 24]: 30
Plant response rating, Foxtail, Giant [6, 18]: 100
Plant response rating, Foxtail, Giant [6, 25]: 80
Plant response rating, Foxtail, Giant [6, 19]: 90
Plant response rating, Foxtail, Giant [6, 20]: 90
Foxtail, Giant plant response rating [6, 21]: 95
Plant response rating, Foxtail, Giant [6, 22]: 10
Plant response rating, Foxtail, Giant [6, 23]: 50
Foxtail, Giant plant response rating [6, 24]: 100
Plant response rating, Blackgrass [7, 18]: 50
Plant response rating, Blackgrass [7, 25]: 10
Plant response rating, Blackgrass [7, 19]: 20
Plant response rating, Blackgrass [7, 20]: 40
Blackgrass plant response rating [7, 21]: 50
Plant response rating, Blackgrass [7, 22]: 5
Plant response rating, Blackgrass [7, 23]: 5
Blackgrass plant response rating [7, 24]: 50
Plant response rating, Soybean [8, 18]: 95
Plant response rating, Soybean [8, 19]: 95
Plant response rating, Soybean [8, 20]: 98
Soybean plant response rating [8, 21]: 98
Plant response rating, Soybean [8, 22]: 20
Plant response rating, Soybean [8, 23]: 85
Soybean plant response rating [8, 24]: 90
Plant response rating, Surinam Grass [9, 18]: 95
Plant response rating, Surinam Grass [9, 19]: 50
Plant response rating, Surinam Grass [9, 20]: 70
Surinam Grass plant response rating [9, 21]: 85
Plant response rating, Surinam Grass [9, 22]: 0
Plant response rating, Surinam Grass [9, 23]: 20
Surinam Grass plant response rating [9, 24]: 90
Plant response rating, Oat, Wild [10, 18]: 50
Plant response rating, Oat, Wild [10, 19]: 50
Plant response rating, Oat, Wild [10, 20]: 60
Oat, Wild plant response rating [10, 21]: 80
Plant response rating, Oat, Wild [10, 22]: 0
Plant response rating, Oat, Wild [10, 23]: 0
Oat, Wild plant response rating [10, 24]: 45
Plant response rating, Crabgrass, Large [11, 18]: 100
Plant response rating, Crabgrass, Large [11, 25]: 45
Plant response rating, Crabgrass, Large [11, 19]: 50
Plant response rating, Crabgrass, Large [11, 20]: 55
Crabgrass, Large plant response rating [11, 21]: 80
Plant response rating, Crabgrass, Large [11, 22]: 98
Plant response rating, Crabgrass, Large [11, 23]: 100
Crabgrass, Large plant response rating [11, 24]: 100
Plant response rating, Velvetleaf [12, 18]: 100
Plant response rating, Velvetleaf [12, 19]: 55
Plant response rating, Velvetleaf [12, 20]: 80
Velvetleaf plant response rating [12, 21]: 98
Plant response rating, Velvetleaf [12, 22]: 10
Plant response rating, Velvetleaf [12, 23]: 90
Velvetleaf plant response rating [12, 24]: 100
Plant response rating, Goosegrass [13, 18]: 100
Plant response rating, Goosegrass [13, 19]: 85
Plant response rating, Goosegrass [13, 20]: 85
Goosegrass plant response rating [13, 21]: 95
Plant response rating, Goosegrass [13, 22]: 95
Goosegrass plant response rating [13, 24]: 100
Plant response rating, Cocklebur [14, 18]: 90
Plant response rating, Cocklebur [14, 25]: 85
Plant response rating, Cocklebur [14, 19]: 95
Plant response rating, Cocklebur [14, 20]: 95
Cocklebur plant response rating [14, 21]: 98
Plant response rating, Cocklebur [14, 22]: 5
Plant response rating, Cocklebur [14, 23]: 80
Cocklebur plant response rating [14, 24]: 90
Plant response rating, Cupgrass, Woolly [15, 18]: 90
Plant response rating, Cupgrass, Woolly [15, 25]: 80
Plant response rating, Cupgrass, Woolly [15, 19]: 85
Plant response rating, Cupgrass, Woolly [15, 20]: 85
Cupgrass, Woolly plant response rating [15, 21]: 85
Plant response rating, Cupgrass, Woolly [15, 22]: 5
Plant response rating, Cupgrass, Woolly [15, 23]: 10
Cupgrass, Woolly plant response rating [15, 24]: 55
Plant response rating, Kochia ([16]; 250 g ai/ha, 0 to 100 scale): 100
Plant response rating, Kochia ([16]; 31 g ai/ha, scale 0 to 100 (0 no effect, 100 complete control)): 98
Plant response rating, Kochia ([16]; 62 g ai/ha, scale 0 to 100, 0 no effect, 100 complete control): 100
Kochia plant response rating ([16]; 125 g ai/ha, 0 to 100 scale): 100
Plant response rating, Morningglory [17, 18]: 100
Plant response rating, Morningglory [17, 19]: 70
Plant response rating, Morningglory [17, 20]: 80
Morningglory plant response rating [17, 21]: 98
Plant response rating, Morningglory [17, 22]: 100
Plant response rating, Morningglory [17, 23]: 100
Morningglory plant response rating [17, 24]: 100
